Legend:
[1] = test system: HeLa cervical carcinoma cells; experiment: Cytotoxicity, alamarBlue assay, HeLa; format: cell-based, human; settings: for EC50: Homo sapiens, HeLa, 72 h incubation, alamarBlue fluorescence, read-out: absolute EC50 HeLa
Experimental: Doxorubicin, suramin and miltefosine were used as control compounds.[ ^6b , ^9 ] After incubation with varied concentrations of the compounds for 72 h, cell viability was measured using either an alamarBlue™ assay (for MRC5, HeLa and T. brucei) or MTT assay (for L. major). Absolute EC50 values and selectivity indexes were then calculated from dose‐response curves (Table 2 and S14). […]
Cell culture reagents were purchased from Thermo Fisher Scientific (Waltham, MA, USA) and used as-is. The Dulbecco’s Minimal Essential Medium (DMEM) formulation contained either high glucose (4.5 g/L, catalogue number: 10569) or low glucose (1 g/L, catalogue number:
10567). RPMI-1640 was provided without sodium pyruvate and with L-glutamine (catalogue number: 11875). Phosphate Buffered Saline (PBS) contained NaCl (9 g/L), KH2PO4 (144 mg/L) and Na2HPO4-7.H2O (795 mg/L, catalogue number: 10010049). TrypLE Express™ was provided with EDTA (458 mg/L) and without Phenol Red (catalogue number: 12604021).
MRC-5 cells (human lung fibroblasts) were grown in monolayer (37 °C, 5 % CO2 and 100 % humidity) in DMEM medium (1 g/L glucose), supplemented with 10% heat-inactivated Fetal Bovine Serum (hiFBS), 2 mM L-glutamine, 100 U / mL penicillin and […] streptomycin. HeLa (Human cervical carcinoma cell line) cells were maintained at 37 °C and 5 % CO2 in high glucose DMEM (4.5 g / L) supplemented with 10% hiFBS, 100 U / ml penicillin, […] streptomycin, 2 mM L-glutamine and non-essential aminoacids (1X).
Cells were cultured according to ATCC recommendations and were used for the experiments while in the exponential growth phase. […]
Cytotoxicity was measured through the alamarBlue® assay (Thermo Fisher Scientific).[S6,S13] Briefly, 5×10^3 MRC-5 or HeLa cells were seeded in 96-wells plates (100 µL / well) in the presence of increasing concentrations of compound. After 72 hrs of incubation at 37 °C, 20 µL of alamarBlue® solution (110 ng / ml) was added to each well and cells were reincubated for 4 hrs at 37 °C. Then, 50 µL of 3 % SDS were added to each well. The plate was incubated at 37 °C for an extra hour and then analysed by fluorescence with an Infinite F200 plate reader (TECAN Austria, GmbH). The excitation wavelength was fixed at 550 nm and the emission wavelength at 590 nm. The results are expressed as the concentration of compound that reduces

L. major = experiment: Leishmaniacidal activity, MTT assay; format: cell-based; settings: Leishmania major; 72 h incubation, MTT absorbance; read-out: absolute EC50 L. major
Experimental: Doxorubicin, suramin and miltefosine were used as control compounds.[ ^6b , ^9 ] After incubation with varied concentrations of the compounds for 72 h, cell viability was measured using either an alamarBlue™ assay (for MRC5, HeLa and T. brucei) or MTT assay (for L. major). Absolute EC50 values and selectivity indexes were then calculated from dose‐response curves (Table 2 and S14).
Invitrogen). L. major promastigotes (MHOM/IL/80/Friedlin) were cultured at 28 °C, 5 % CO2 in modified RPMI-1640 medium (Thermo Fisher Scientific, Waltham, MA, USA) with 10% hiFBS. Parasites were split every other day and maintained in their experimental growth phase (below 2 million parasites per mL). […]
The results are expressed as the concentration of compound that reduces cell growth by 50 % versus untreated control cells (EC50) using GraphPad Prism 7 (GraphPad Software) to fit the data to a sigmoidal curve. Data are presented as the average of three independent measurements all conducted in triplicate conditions. […]
The leishmaniacidal activity of the compounds on promastigotes L. major (MHOM/IL/80/Friedlin) was carried out as previously described.[S14] Briefly, 4 × 10^6 / mL promastigotes were incubated for 72 h at 28 °C in 96-well plates (50 µL/well) in the presence of increasing concentration of compounds. Cell proliferation was determined using an MTT-based assay (Sigma-Aldrich). Thus, after the 72 h incubation, 10 µL of MTT (5 mg/ml) were added to each well and parasites were reincubated for 4 hrs at 28 °C. Then, 50 µL of 20 % SDS were added to each well. The plate was then incubated at 37°C for 4-16 hrs and analysed using an Infinite F200 plate reader (TECAN Austria, GmbH). The absorbance was measured […]
at a wavelength of 540 nm and the EC50 was calculated as described above. Data are presented as the average of three independent measurements, all conducted in triplicate conditions. […]

[2] = test system: F21T-K+ (human telomeric G-quadruplex, mixed parallel/hybrid); experiment: FRET melting assay, human telomeric G4 in potassium buffer; format: binding; settings: 200 nM DNA, PIPER and 3 not reliable (spectral overlap)
Experimental: With the library in hand, we began our investigation into G4 stabilization by conducting a Förster resonance energy transfer (FRET) melting assay to assess DNA stabilization using the procedure outlined by De Cian et. al. ^[13] […] The sequences examined (at 200 nM) were the human telomeric G4 in potassium buffer (F21T‐K^+, mixed parallel/hybrid G4) ^[14] and sodium buffer (F21T‐Na^+, antiparallel G4), ^[15] the c‐Myc promoter G‐quadruplex (FmycT‐K^+, parallel G4), ^[16] a polymorphic G4 found in T. brucei (FEBR1T‐K^+, a mixed G4 topology), ^[6b] and a hairpin duplex DNA sequence (F10T‐K^+). Together, these sequences represent targets for therapeutic intervention to treat parasitic infections, ^[6b] or cancer. ^[1b] The topology of each sequence was confirmed independently via circular dichroism (CD, Figure S1). […]
FRET melting assays were performed to assess ligand affinity for duplex and G-quadruplex
DNA. Briefly, oligonucleotides of interest were obtained labelled at the 5’ and 3’ ends with FAM (a fluorescence donor) and TAMRA (a fluorescence quencher), respectively. In the folded state, proximity of the donor and quencher result in no observed fluorescence from FAM, since energy is transferred non-radiatively to TAMRA by FRET. As the temperature is raised and the secondary structure denatures, the fluorophores move further apart and the fluorescence signal increases. From the resulting curve, the characteristic melting temperature (Tmax, also referred to as Tm) is defined as the temperature which corresponds to the maxima of the first derivative of the normalised fluorescence signal. The change in melting temperature (ΔTm) induced by the presence of a small molecule ligand provides an indication of the ligand’s ability to stabilise the DNA structure. FRET experiments were performed according to the […]
procedure reported by De Cian and co-workers[S3] on a Stratagene MX3005P. The method consisted of holding at 25 °C for 5 min, before heating at 1 °C/min to 96 °C in 1 °C increments, […]

[3] = 5 μM ligand, 10 mM KCl, 90 mM LiCl, 10 mM Li cacodylate

| Structure (SMILES) | EC50 [1] | EC50 (L. major) | ΔTm F21T-K+ ([2]; 1 µM ligand) | ΔTm F21T-K+ [2, 3] | ΔTm F21T-K+ ([2]; 10 µM ligand) | SI (MRC5/HeLa) ([1]; selectivity index from EC50 values) |
| --- | --- | --- | --- | --- | --- | --- |
| CN1CCN(CCCN2C(=O)c3ccc4c5c(ccc(c35)C2=O)C(=O)N(CCCN2CCN(C)CC2)C4=O)CC1 [Compound 1] | 0.5 ± 0.05 µM | 0.47 ± 0.07 µM | – | – | – | – |
| CN1CCN(CCCN2C(=O)c3ccc4c5ccc6c7c(ccc(c8ccc(c3c48)C2=O)c75)C(=O)N(CCCN2CCN(C)CC2)C6=O)CC1 [Compound 3] | 53 ± 6.2 µM | > 100 µM | 10 ± 1 °C | 34±1 °C | 33 ± 1 °C | 0.04 |
| CN1CCN(CCCN2C(=O)c3ccc(Oc4ccc(C(C)(C)c5ccc(Oc6ccc7c(c6)C(=O)N(CCCN6CCN(C)CC6)C7=O)cc5)cc4)cc3C2=O)CC1 [Compound 9] | 29 ± 3.5 µM | > 100 µM | – | −1±1 °C | 8 ± 3 °C | – |
| CN1CCN(CCCNC(=O)c2ccc(Oc3ccc(C(C)(C)c4ccc(Oc5ccc(C(=O)NCCCN6CCN(C)CC6)c(C(=O)NCCCN6CCN(C)CC6)c5)cc4)cc3)cc2C(=O)NCCCN2CCN(C)CC2)CC1 [Compound 11] | 14 ± 1 µM | 18 ± 1 µM | -2 ± 1 °C | 7±2 °C | 9 ± 1 °C | – |

Source: paper PMC8251916 (Chemistry (Weinheim an Der Bergstrasse, Germany), 2021)
